Data: patent US6488564B1, “Brassiere protecting against eletrostatic field induced tissue degradation” (priority 1999, dated 2002)

Key:
[1] = test system: murine mammary 16/C adenocarcinoma; assay: Example A: tumor regression by ADM with or without electrostatic field exposure in tumor-bearing mice; format: in vivo, B6C3F1 mouse
Text: The inventor's research protocol used the B6C3F1 mouse strain. […] For the inventor's studies, female mice were implanted with murine mammary 16/C adenocarcinoma, a commonly used tumor for cancer research. […] Approximately equal-sized tumor fragments were implanted in each mouse's axillary region through a puncture in the inguinal region. All test animals were approximately six weeks old, with a body weight of 17 to 20 grams at the time of implant. Also, food and water were provided ad libitum throughout each study, and all Groups were exposed to the same temperature and light conditions (lights on 12 hours and off 12 hours each day). The studies were blinded in both the assignment of the animals to the study groups, and in all tumor measurements.
In the first study noted here, four groups of 11 tumor bearing animal each were used. […] All of the animals were treated with 12 mg/kg ADM on day 4, and housed in cages containing an insulated metal screen suspended 25.4-mm above the animals.
GA: Control, treated with ADM and no electrostatic field exposure. The screen above animals was not charged.
GB: The screen was charged, and changed from positive to negative 15 kV DC once each 15 minutes.
GC: The screen was charged 15 kV DC, and changed from positive to negative once each 15 minutes. The animals were on a grounded wire grid cage floor (115 mm between the screen and floor).
GD: The screen was charged, and changed from positive to negative 15 kV once each 15 minutes. There was no ground plane nearby.

B6C3F1 mouse = assay: Example B: animal deaths after ADM with or without electrostatic field exposure in tumor-bearing mice; format: in vivo; design: key to animal death: “X” indicates an animal death
Text: Before methods for practicing the present invention are discussed, it will be helpful to note the results of examples of the inventor's studies with animals exposed to electrostatic fields, and to electrostatic fields and chemicals in combination. The total scope of the inventor's studies regarding electrostatic field influence inside a living body has involved over 350 tumor bearing rodents, however for the sake of brevity only four such studies will be noted here. The inventor's research protocol used the B6C3F1 mouse strain. This mouse is recognized by the National Cancer Institute as one Standard for chemotherapy research, and is one of the commonly accepted rodent species used in cancer studies. For the inventor's studies, female mice were implanted with murine mammary 16/C adenocarcinoma, a commonly used tumor for cancer research. The 16/C murine mammary tumor is particularly aggressive, and can normally grow from a barely visible, or even invisible, bump under the skin the day after the implant, to 10 to 20 percent of the animal's total body weight by day 14 (tumor size typically up to 4 grams). Approximately equal-sized tumor fragments were implanted in each mouse's axillary region through a puncture in the inguinal region. All test animals were approximately six weeks old, with a body weight of 17 to 20 grams at the time of implant. Also, food and water were provided ad libitum throughout each study, and all Groups were exposed to the same temperature and light conditions (lights on 12 hours and off 12 hours each day). The studies were blinded in both the assignment of the animals to the study groups, and in all tumor measurements.
After the tumors were allow to establish and grow for several days, the mice were treated with adriamycin (ADM), a commonly used chemotherapeutic agent, at dose levels based on their individual weight and known to be safe. Following this, the animals were blindly divided into the study groups. The growth rate of the tumors in a Control Group, without exposure to electrostatic fields, was compared to that of Test Groups that were under the influence of an electrostatic field. Tumor measurements were made by caliper using the prolate ellipsoid formula of the National Cancer Institute to convert the measurements into weight. This method allowed the tumor weight of each animal to be tracked throughout the study.
The mice in each Test Group were subjected to electrostatic fields with the use of special cages. When the application of electrostatic fields was required, special equipment was used to expose the desired animal groups to an electrostatic field with an intensity of approximately 79,000 V/m from a charged element insulated from the animals.
This study used three groups of 11 tumor-bearing animals each. There was not a statistical difference in the size of the animal tumors at the start of the study. All of the animals were treated twice with 8 mg/kg ADM given on days 3 and 5 (16 mg/kg total). In addition, Groups B&C were exposed to an electrostatic field for 4 hours following each injection.
GA: Control, treated with ADM and no electrostatic field exposure.
GB: ADM plus exposure to a negative 15 kV DC charged screen 25.4 mm above, with a grounded grid below, the animals (90 mm between screen and grid).
GC: ADM plus exposure to 15 minute cycles of positive then negative 15 kV DC on a screen 25.4 mm above, with a grounded grid below, the animals (90 mm between screen and grid).
In this study the inventor inadvertently allowed the applied electrostatic fields in Groups B and C to increase the affect of the ADM to a lethal level. […] The electrostatic fields Groups B and C were exposed to increased the reaction of body cells to the ADM, creating the effect of a lethal overdose. […]

Work on `COc1cccc2c1C(=O)c1c(O)c3c(c(O)c1C2=O)C[C@@](O)(C(=O)CO)C[C@@H]3O[C@H]1C[C@H](N)[C@H](O)[C@H](C)O1` [ADM, adriamycin] yielded a tumor wt. loss ([1]; GA: 12 mg/kg ADM on day 4, no electrostatic field exposure (screen not charged)) of −24%, a tumor wt. loss ([1]; GB: 12 mg/kg ADM on day 4 plus screen changed positive to negative 15 kV DC each 15 minutes, grounded wire grid below cage) of −86% and a tumor wt. loss ([1]; GC: 12 mg/kg ADM on day 4 plus screen 15 kV DC changed positive to negative each 15 minutes, animals on grounded wire grid cage floor) of −80%. For the same compound, the tumor wt. loss ([1]; GD: 12 mg/kg ADM on day 4 plus screen changed positive to negative 15 kV each 15 minutes, no ground plane nearby) was −75%, the ill affect (B6C3F1 mouse; GA: 8 mg/kg ADM days 3 and 5, without exposure to a static field) was “no ill affect until day 30” and the animal death (B6C3F1 mouse; Group A: 8 mg/kg ADM days 3 and 5, no field, day 30 (death from tumor, not ADM)) was “X”. The animal death (B6C3F1 mouse; Group B: 8 mg/kg ADM days 3 and 5 plus negative 15 kV DC field 4 hours after each injection, day 12) was “XXX”, the animal death (B6C3F1 mouse; Group B: 8 mg/kg ADM days 3 and 5 plus negative 15 kV DC field 4 hours after each injection, day 18) was “X” and the animal death (B6C3F1 mouse; Group B: 8 mg/kg ADM days 3 and 5 plus negative 15 kV DC field 4 hours after each injection, day 19) was “X”. The animal death (B6C3F1 mouse; Group B: 8 mg/kg ADM days 3 and 5 plus negative 15 kV DC field 4 hours after each injection, day 22) was “X”, the animal death (B6C3F1 mouse; Group B: 8 mg/kg ADM days 3 and 5 plus negative 15 kV DC field 4 hours after each injection, day 28) was “X” and the animal death (B6C3F1 mouse; Group C: 8 mg/kg ADM days 3 and 5 plus 15 minute cycles of positive then negative 15 kV DC field 4 hours after each injection, day 11) was “X”. The animal death (B6C3F1 mouse; Group C: 8 mg/kg ADM days 3 and 5 plus 15 minute cycles of positive then negative 15 kV DC field 4 hours after each injection, day 12) was “XXXXX” and the “necropsy of the dead animals” value (B6C3F1 mouse; Groups B and C: 8 mg/kg ADM days 3 and 5 plus electrostatic field) was “obvious heart enlargement”.
